Assay: xn = mol fraction of the nth substance listed
Conditions: 100 kPa

CCCCCCCCCCC + CCCCCCCCCO
viscosity [mPa·s]
Conditions	x1 = 0.1008	x1 = 0.2004	x1 = 0.2999	x1 = 0.3992	x1 = 0.5014	x1 = 0.5978	x1 = 0.6993	x1 = 0.7958	x1 = 0.9
293.15 K	8.362	6.114	4.688	3.479	2.709	2.208	1.803	1.531	1.326
298.15 K	6.989	5.181	4.013	3.028	2.391	1.972	1.634	1.419	1.216
303.15 K	5.885	4.422	3.464	2.653	2.124	1.777	1.529	1.296	1.117
308.15 K	4.99	3.802	3.012	2.342	1.904	1.613	1.391	1.185	1.03
313.15 K	4.264	3.291	2.636	2.084	1.718	1.5	1.271	1.09	0.956
318.15 K	3.665	2.868	2.326	1.867	1.561	1.367	1.164	1.004	0.889
323.15 K	3.17	2.503	2.066	1.685	1.461	1.249	1.07	0.928	0.826

CCCCCCCCCCC + CCCCCCCCO
viscosity [mPa·s]
Conditions	x1 = 0.0994	x1 = 0.2003	x1 = 0.2994	x1 = 0.3986	x1 = 0.498	x1 = 0.5983	x1 = 0.6948	x1 = 0.7982	x1 = 0.899
293.15 K	6.831	5.141	3.839	3.004	2.374	1.965	1.669	1.463	1.271
298.15 K	5.749	4.369	3.31	2.622	2.109	1.77	1.542	1.349	1.164
303.15 K	4.874	3.746	2.878	2.322	1.929	1.622	1.402	1.233	1.071
308.15 K	4.161	3.23	2.519	2.063	1.725	1.473	1.281	1.132	0.987
313.15 K	3.577	2.805	2.223	1.847	1.559	1.341	1.175	1.043	0.915
318.15 K	3.091	2.455	1.978	1.67	1.413	1.224	1.079	0.963	0.848
323.15 K	2.694	2.167	1.774	1.507	1.286	1.123	0.996	0.892	0.792

Reference: the CheMixHub viscosity set
